In ChEMBL document CHEMBL1139724, “Synthesis and free radical scavenging activity of a novel metabolite from the fungus Colletotrichum gloeosporioides” (Bioorg Med Chem Lett, 2006):

Assay: DPPH radical scavenging activity
Type: functional

Row | EC50 [mol/mol] | SMILES
1 | 0.14 | Oc1ccc([C@H]2OC[C@H](O)[C@@H]2O)cc1O
2 | 0.23 | Cc1cc(C(C)(C)C)c(O)c(C(C)(C)C)c1 [BUTYLATED HYDROXYTOLUENE]
3 | 0.11 | O=C(O)/C=C/c1ccc(O)c(O)c1 [CAFFEIC ACID]
4 | 0.14 | O=C(O)c1ccc(O)c(O)c1 [PROTOCATECHUIC ACID]
